Reference: patent US12521439B2, “Methods and materials for modulating Nrf2 pathway” (The General Hospital Corporation, priority 2019, dated 2026)

Legend:
[1] = system: CT2A mouse gliomas; assay: Immunophenotyping of tumor-infiltrating immune cells (flow cytometry); format: in vivo, C57BL/6 mice
Method: The effect of OBT on glioma immunomodulation in vivo was next evaluated. 50,000 CT2A cells expressing Fluc were implanted in the striatum of immunocompetent C57BL/6 mice. Two weeks post-injection, mice were i.p. injected with OBT (7.5 mg/kg body weight/day) or PBS/DMSO control, over 4 days (n=6/group). Mice were sacrificed, brains removed, and tumor tissues dissected out and homogenized. […] OBT increased intratumoral CD8+ cytotoxic T cells with higher levels of both Ki-67 and granzyme B (markers for increased activation of effector cells, abrogation of suppressive immune cells) and decreased CD4+ regulatory T cells (Treg; CD25^+Foxp3^+), typically used by the tumour to escape the immune system, leading to an increase in the ratio of CD8+ T cells over Tregs (FIG. 25B-D). […] CTLA-4, PD-1, Lag-3 and Tim-3 levels (hallmark for exhausted and anergic T cells) were not changed on any of these cells (FIG. 25B; only showing PD-1).

[2] = system: ARE (Nrf2 pathway); assay: ARE-Gluc luciferase reporter (normalized to SV40-Vluc); format: cell-based, human
Source text: DNA expression constructs: ARE reporter was designed and generated based on our previously published reporter for monitoring of the transcription factor Nuclear Factor Kappa B (NFkB). NFkB TRE elements were removed and replaced with four copies of the ARE enhancer sequence. This reporter consists of a CSCW lentivirus vector in which we have introduced two copies of the 1.2 kb chicken beta-globin (HS4) insulator elements, a TATA box acting as a minimal promoter upstream of the secreted Gaussia luciferase (Gluc). pcDNA3-HA2-Keap1 (Addgene plasmid #21556) and pcDNA3-HA2-Keap1 delta BTB (Addgene plasmid #21593) were a gift from Yue Xiong^2. pHAGE DN Cullin 3 (DN-CUL3) was a gift from Stephen Elledge (Addgene plasmid #41913). Constructs expressing constitutively active Gluc, Firefly luciferase (Fluc) and Vargula luciferase (Vluc) were previously describe. MISSION shRNA Bacterial Glycerol Stocks for Keap1 as well as a non-target shRNA were obtained from Sigma. Transfection of plasmid DNA was performed using Lipofectamine 2000 (Invitrogen) as per manufacturer's guidelines. Lentivirus packaging and titration was performed in 293T cells by the MGH viral vector core facility following standard protocols. Keap1 mutant C151S plasmid was kindly provided by Dr. Wooyoung Hur.
Luciferase assay: Coelenterazine (20 μM; Nanolight), The Gluc substrate was added to a 25 μL aliquot of conditioned medium and photon counts were measured using a luminometer. Similarly, the secreted Vluc activity was measured by adding its substrate vargulin (5 ng/mL; Nanolight). Cells stably expressing Gluc under the ARE enhancer sequence and Vluc under the constitutively active SV40 minimal promoter were used to determine the ARE reporter activity. The normalized Gluc/Vluc ratio was used as a marker for ARE activation.

[3] = system: tumour-infiltrating CD4+ and CD8+ T cells; assay: Ex vivo stimulation of tumour-infiltrating T cells (anti-CD3/anti-CD28); format: cell-based, mice; settings: cells from OBT-treated tumours, cultured 3 days
Source text: To confirm reversion of T cell exhaustion and activation of cytotoxic T cells by OBT, tumour-infiltrating CD4+ and CD8+ T cells (n=3) were isolated and cultured in the presence of anti-CD3 and anti-CD28 antibodies to mimic an antigenic stimulation.

[4] = Pharmacokinetics after single i.p. administration; format: in vivo, male Swiss Albino mice
Method: Pharmacokinetics studies: These studies were performed by SAI Lifesciences using Male Swiss Albino mice. OBT was resuspended in a solution formulation of 10% DMA, 10% EtOH, 10% PEG400 in 70% of (2-hydroxypropyl)-[…] (HPβCD). OBT was administered by intraperitoneal (i.p.) injection at 7.5 mg/kg. Blood samples were collected from mice, at 0, 0.08, 0.25, 0.5, 1, 2, 4, 8 and 24 hr. Immediately after blood collection, plasma was harvested by centrifugation and stored until analysis. After collection of blood, brain samples were collected from each mouse at 0.5, 4 and 24 h. Tissue samples were homogenized using ice-cold phosphate buffer saline (pH7.4) and homogenates were stored until analysis. Total homogenate volume was three times the tissue weight. Plasma samples were quantified by LC-MS/MS method (LLOQ=1.00 ng/mL) for plasma and brain.

[5] = target: Keap1 (Homo sapiens, UniProt Q14145); assay: Keap1 immunoblotting / immunoprecipitation; format: cell-based; design: Keap1 protein levels in U87 cells treated with the indicated doses of OBT for 8 hours; endogenous in cells; host or cells: U87, MDA-MB-231 (endogenous); 293T and MDA-MB-231 also transfected with HA-Keap1
Method: Immunoblotting and Immunoprecipitation analysis: Antibodies against PDI, GAPDH, HA-tag, Ubiquitin, Keap1 and beta-actin (Cell Signaling) as well as secondary Horseradish peroxidase (HRP) conjugated antibodies: sheep anti-mouse IgG-HRP and donkey antirabbit IgG-HRP (Amersham Pharmacia Biotech) were used in this study. For protein expression analysis, cells were lysed in RIPA buffer (150 mM NaCl, 50 mM TRIS, pH 8.0, 1% NP-40, 0.5% deoxycholate, 0.1% SDS) supplemented with 1× protease inhibitors cocktail (Roche). Proteins were quantified using a Bradford protein determination assay (Bio-Rad) followed by electrophoresis in 10% NuPAGE Bis-Tris gels (Life Technologies) and transfer to nitrocellulose membranes (Bio-Rad). Membranes were incubated overnight with antibodies in 1-5% non-fat milk powder in PBS/0.5% TWEEN. Proteins were detected with SuperSignal West Pico Chemiluminescent Substrate (Pierce). For immunoprecipitation assays, cells were lysed in RIPA buffer supplemented with protease inhibitors and 2 mM N-ethylmaleimide. Cell lysates were pre-cleared with protein A agarose beads (Cell Signaling) and incubated with anti-HA antibody with gentle rocking overnight at 4° C. followed by incubation with protein A agarose beads and subsequent washing and elution steps. Electrophoresis, transfer and immunoblot analysis was performed as described above.

Chain of Keap1 (Q14145 whole entry): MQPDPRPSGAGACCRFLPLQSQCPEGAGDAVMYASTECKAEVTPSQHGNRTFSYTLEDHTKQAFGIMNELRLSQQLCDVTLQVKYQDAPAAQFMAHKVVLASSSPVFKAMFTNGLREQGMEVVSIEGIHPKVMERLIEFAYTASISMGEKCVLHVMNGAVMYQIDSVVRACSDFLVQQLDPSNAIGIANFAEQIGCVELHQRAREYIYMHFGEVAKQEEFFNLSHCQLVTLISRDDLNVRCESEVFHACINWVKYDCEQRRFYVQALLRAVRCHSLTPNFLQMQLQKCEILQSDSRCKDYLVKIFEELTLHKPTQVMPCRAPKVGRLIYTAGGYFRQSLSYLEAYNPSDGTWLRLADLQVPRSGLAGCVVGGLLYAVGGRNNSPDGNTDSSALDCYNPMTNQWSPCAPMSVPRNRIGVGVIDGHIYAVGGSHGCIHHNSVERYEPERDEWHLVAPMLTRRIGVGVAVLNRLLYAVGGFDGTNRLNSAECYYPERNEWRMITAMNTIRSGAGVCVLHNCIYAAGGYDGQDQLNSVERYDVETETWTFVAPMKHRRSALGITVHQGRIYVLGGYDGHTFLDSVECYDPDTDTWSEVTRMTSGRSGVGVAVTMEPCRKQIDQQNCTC

Vss relative to normal volume of total body water (0.7 L/kg) ([4]; 7.5 mg/kg i.p.): 3 fold
systemic plasma clearance ([4]; 7.5 mg/kg i.p.): high
time up to which plasma concentrations were detected ([4]; 7.5 mg/kg i.p., LC-MS/MS): up to 24 hrs
blood-brain barrier penetration ([4]; intact BBB): efficiently penetrates
Kp at 0.5 h ([4]; male, Swiss Albino, mouse, brain, ip, 7.5 mg/kg, 0.5 hr after single i.p. dose, read-out: brain-to-plasma ratio): 0.27
Kp at 4 h ([4]; male, Swiss Albino, mouse, brain, ip, 7.5 mg/kg, 4 hrs after single i.p. dose, read-out: brain-to-plasma ratio): 0.5
Tmax ([4]; male, Swiss Albino, mouse, ip, plasma, 7.5 mg/kg i.p.): 30 min
half-life ([4]; male, Swiss Albino, mouse, plasma, ip, 7.5 mg/kg i.p., read-out: terminal plasma half-life): 24 min
ubiquitination of Keap1 ([5]; 293T, OBT 2 μM, 6 hours, IP anti-HA): resulted in ubiquitination of Keap1
OBT-mediated degradation of Keap1 with CUL3 downregulation or proteasome inhibitor ([5]; MDA-MB-231, OBT 3 μM, 6 hours): prevented
time at which Keap1 restored to physiological levels ([5]; U87): 24 h
earliest time of Keap1 decrease ([5]; U87, following treatment with OBT): 4 h
Keap1 protein levels ([5]; U87, 1 μM time course, indicated doses 8 hours): time- and dose-dependent decrease
Structure (SMILES): COC1=CC(=O)C(O)=C/C1=C/C=C/c1ccccc1 [OBT, (Z)-2-hydroxy-5-methoxy-4-((E)-3-phenylallylidene)cyclohexa-2,5-dien-1-one]
CD4+ regulatory T cells (Treg; CD25+Foxp3+) ([1]; 7.5 mg/kg/day i.p. over 4 days): decreased
Ki-67 and granzyme B in CD8+ T cells ([1]; 7.5 mg/kg/day i.p. over 4 days): higher levels
dendritic cells ([1]; 7.5 mg/kg/day i.p. over 4 days): significant increase
intratumoral CD8+ cytotoxic T cells ([1]; 7.5 mg/kg/day i.p. over 4 days): increased
levels of CD4+ T cells ([1]; 7.5 mg/kg/day i.p. over 4 days): did not change
number of microglia and macrophages ([1]; 7.5 mg/kg/day i.p. over 4 days): not changed
ratio of CD8+ T cells over Tregs ([1]; 7.5 mg/kg/day i.p. over 4 days): increase
CTLA-4, PD-1, Lag-3 and Tim-3 levels ([1]; T cells): not changed
CD47 ([1]; on all three cell types): significantly downregulated
PD-L1 ([1]; on microglia, dendritic cells, macrophages): did not have an effect
OBT-induced ARE activation and loss of cell viability with thiol antioxidants ([2]; addition of NAC, DTT, GSH, U87): completely reversed
OBT-induced ARE activation and loss of cell viability with Trolox ([2]; addition of Trolox, U87): only partially
ARE luciferase reporter activity ([2]; sub-toxic doses, higher than positive control tBHQ, U87 and MDA-MB-231): strongly activated
response of CD4+ T cells to antigenic stimulus [3]: no change
response of CD8+ T cells to antigenic stimulus (proliferation, Ki67, granzyme B) [3]: significantly more responsive
